Data on 89 compounds can be found in PubChem BioAssay AID488810 (Sanford-Burnham Center for Chemical Genomics, 2010).

Values joined by “and” are separate entries in the source; they are usually repeats but may differ in a detail not shown here. Identical values can stand only once. Active and inactive are the calls of the source.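 Rule for the calls: active = compounds with IC50 below 20 µM; inactive = the rest.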

The target of the assay is Type-1 angiotensin II receptor (Homo sapiens) (UniProt P30556). Kind of assay: AT1 receptor antagonists, beta-arrestin recruitment, SAR follow-up, selectivity assay for APJ antagonist project, cell-based, CHO-K1 PathHunter, luminescence (AID 488810).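 Note: agonist challenge with angiotensin II at 50 nM final near its EC80.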 To be noted: CHO-K1 AGTR1 PathHunter beta-arrestin, antagonist mode. On the technique in general: Arrestin recruitment assays detect the binding of arrestin to an activated receptor.
Chain of Type-1 angiotensin II receptor (Homo sapiens) (P30556 whole entry, looked up): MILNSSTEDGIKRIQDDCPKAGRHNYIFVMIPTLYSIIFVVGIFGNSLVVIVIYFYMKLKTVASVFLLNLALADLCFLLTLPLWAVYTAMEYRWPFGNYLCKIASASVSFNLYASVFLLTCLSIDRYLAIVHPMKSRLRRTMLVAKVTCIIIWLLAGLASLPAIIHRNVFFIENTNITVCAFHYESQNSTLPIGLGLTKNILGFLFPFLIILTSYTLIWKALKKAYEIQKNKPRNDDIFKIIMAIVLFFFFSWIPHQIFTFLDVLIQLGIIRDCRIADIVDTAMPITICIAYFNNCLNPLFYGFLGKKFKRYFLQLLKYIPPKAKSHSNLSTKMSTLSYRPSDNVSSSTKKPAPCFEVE
On to `CC1(C)CC2(CC(c3ccccc3Cl)c3ccc(O)cc3O2)NC(=S)N1` (centres undefined), for which the IC50 (commonly the concentration needed to halve the response being measured) is “inactive”.

With `O=C(COC(=O)c1cccnc1)c1ccc(Cl)cc1`, the IC50 was > 79 µM (inactive).

With `O=c1cc(CSc2ccccc2)occ1O`, the IC50 is > 79 µM (inactive).

Turning to `CCCCOc1ccc(C(=O)Oc2coc(CSc3ncccn3)cc2=O)cc1`, the IC50 is > 79 µM (inactive).

As for `COc1cccc(/C=C/c2ccc3cccc(O)c3n2)c1OC`, the IC50 was 14.1 µM.

Turning to `O=C(Oc1coc(CSc2ncccn2)cc1=O)c1cccc([N+](=O)[O-])c1`, the IC50 was > 79 µM (inactive).

For the compound `CC(=O)Nc1ccc(NC(=O)CCC(=O)OCC(=O)c2ccc(C)c([N+](=O)[O-])c2)cc1`, the IC50 result was “inactive”.

Regarding `Cc1cc(C)nc(SCc2cc(=O)c(OC(=O)c3ccc(S(=O)(=O)N(C)C)cc3)co2)n1`, the IC50 is > 79 µM (inactive).

`Cc1cccc(C2CC3(CC(C)(C)NC(=O)N3)Oc3cc(O)c(Cl)cc32)c1` (centres undefined): the IC50 was > 79 µM (inactive).

On to `Cc1cccc(N=C2C(=O)Nc3c(Cl)cccc32)c1`, for which the concentration for half-maximal inhibition (IC50) is 3.32 µM.

Take `Cc1ccc(C(=O)CNc2ccccc2)cc1`: the IC50 is 3.37 µM.

On to `Cc1cc(C)nc(SCc2cc(=O)c(OC(=O)c3cc([N+](=O)[O-])ccc3Cl)co2)n1`, for which the IC50 result is “inactive”.

For the compound `Cc1cc(C)nc(SCc2ccc(O)c(Cl)c2)n1`, the IC50 is > 79 µM (inactive).

Consider `Cc1ccnc(SCc2cc(=O)c(O)co2)n1`, for which the IC50 was > 79 µM (inactive).

For `Cc1ccnc(S(=O)(=O)Cc2cc(=O)c(OC(=O)c3ccc(Cl)c([N+](=O)[O-])c3)co2)n1`, the IC50 was > 79 µM (inactive).

For the compound `Cc1ccc(C)c(NCC(=O)c2ccc(Cl)cc2)c1`, the half-maximal inhibitory concentration (IC50) was 1.27 µM.

Consider `Oc1cccc(CSc2ncccn2)c1`, for which the IC50 was > 79 µM (inactive).

Turning to `C=CCOc1ccc(CSc2nc(C)cc(C)n2)cc1Cl`, the IC50 is > 79 µM (inactive).

As for `COc1cccc(C(=O)Oc2coc(CSc3nccc(C)n3)cc2=O)c1`, the IC50 is > 79 µM (inactive).

Consider `CC(C)Oc1ccc(C(=O)Oc2coc(CSc3ncccn3)cc2=O)cc1`, for which the IC50 was > 79 µM (inactive).

Regarding `Cc1ccnc(SCc2cc(=O)c(OC(=O)c3ccccc3Cl)co2)n1`, the IC50 is > 79 µM (inactive).

As to `Cc1cccc(C2CC3(CC(C)(C)NC(=S)N3)Oc3cc(O)cc(C)c32)c1` (centres undefined), the IC50 entry was “inactive”.

As to `O=C(Oc1coc(CSc2ncccn2)cc1=O)c1ccc(S(=O)(=O)N2CCCC2)cc1`, the IC50 is > 79 µM (inactive).

For the compound `Cc1cc(C)nc(SCc2cc(=O)c(OC(=O)c3ccc(C)c([N+](=O)[O-])c3)co2)n1`, the IC50 was > 79 µM (inactive).

Take `CC(C(=O)OCC(=O)c1cccc([N+](=O)[O-])c1)N1C(=O)C2C3C=CC(C3)C2C1=O` (centres undefined): the IC50 result was “inactive”.

For the compound `COC(=O)C1NN=C(C(=O)c2ccc(Cl)cc2)C1c1ccc(OC)cc1` (centres undefined), the IC50 is 16.1 µM.

As for `O=C(Oc1coc(CSc2ncccn2)cc1=O)c1ccc(F)cc1`, the IC50 was > 79 µM (inactive).

Turning to `O=C(Oc1coc(CSc2ncccn2)cc1=O)c1ccc(Cl)c([N+](=O)[O-])c1`, the IC50 was > 79 µM (inactive).

`O=C(COC(=O)c1cnccn1)c1ccc(Cl)c([N+](=O)[O-])c1`: the half-inhibitory concentration (IC50) is 9.73 µM.

For the compound `COc1ccccc1NCC(O)c1ccc(Cl)cc1` (centres undefined), the IC50 was > 79 µM (inactive).

On to `S=C1NCCc2ccccc2C1c1ccccc1Cl` (centres undefined), for which the IC50 is 16.5 µM.

For the compound `COc1ccc(NC2C(=O)Nc3ccccc32)cc1` (centres undefined), the IC50 was > 79 µM (inactive).

Consider `Cc1ccnc(SCc2cc(=O)c(OC(=O)c3cc(Cl)ccc3[N+](=O)[O-])co2)n1`, for which the IC50 result was “inactive”.

Consider `CCOc1ccc(C(=O)Oc2coc(CSc3ncccn3)cc2=O)cc1`, for which the IC50 is > 79 µM (inactive).

As to `C=CCSC1=NC2(CC(c3ccccc3)c3c(C)cc(O)cc3O2)CC(C)(C)N1` (centres undefined), the IC50 was > 79 µM (inactive).

Take `CC1(C)CC2(CC(c3ccccc3Cl)c3ccc(OC(=O)c4ccccc4)cc3O2)NC(=S)N1` (centres undefined): the IC50 was > 79 µM (inactive).

As for `O=C(COC(=O)c1cccnc1)c1ccc(Cl)c(Cl)c1`, the IC50 entry was “inactive”.

Regarding `COc1ccc(C(=O)Oc2coc(CSc3nccc(C)n3)cc2=O)cc1`, the IC50 was > 79 µM (inactive).

With `Cc1ccc(C(=O)Oc2coc(CSc3ncccn3)cc2=O)cc1[N+](=O)[O-]`, the IC50 is > 79 µM (inactive).

On to `COc1ccc(C2CC3(CC(C)(C)NC(=S)N3)Oc3cc(O)cc(C)c32)cc1` (centres undefined), for which the IC50 is > 79 µM (inactive).

In the case of `Cn1c(=O)c(C(=S)NC(=O)C2CC2)c(N)n(Cc2ccccc2)c1=O`, the IC50 result is “inactive”.

As to `Cc1ccnc(SCc2cc(=O)c(OC(=O)c3ccc(OC(F)(F)F)cc3)co2)n1`, the IC50 was > 79 µM (inactive).

For the compound `CC(C)Cc1nc2oc3c(Cl)ncnc3c2c2c1CCC2`, the IC50 is 15 µM.

For `COc1ccc(C2CC3(CC(C)(C)NC(=S)N3)Oc3cc(OC(C)=O)cc(C)c32)cc1` (centres undefined), the IC50 is > 79 µM (inactive).

Turning to `Cc1ccnc(SCc2cc(=O)c(OC(=O)c3ccc(S(=O)(=O)N4CCCC4)cc3)co2)n1`, the IC50 was > 79 µM (inactive).

For the compound `Cc1cc(C)nc(NNS(=O)(=O)c2c(F)cc(F)cc2Br)n1`, the IC50 was 5.01 µM.

In the case of `O=C(Oc1coc(CSc2ncccn2)cc1=O)c1ccc(S(=O)(=O)N2CCCCC2)cc1`, the IC50 is > 79 µM (inactive).

On to `Oc1cccc2ccc(/C=C/c3ccccc3Cl)nc12`, for which the IC50 was 17 µM.

In the case of `O=C(CNS(=O)(=O)c1ccccc1)OCC(=O)c1cccc([N+](=O)[O-])c1`, the IC50 result is “inactive”.

Regarding `Cc1ccc(C(=O)Oc2coc(CSc3ncccn3)cc2=O)cc1C`, the IC50 is > 79 µM (inactive).

Consider `Cc1cc(C)nc(NNS(=O)(=O)c2ccc(F)c(Cl)c2)n1`, for which the IC50 was 3.78 µM.

As to `Cc1ccccc1C1CC2(CC(C)(C)NC(=S)N2)Oc2cc(O)c(Cl)cc21` (centres undefined), the IC50 was > 79 µM (inactive).

As for `Cc1ccnc(SCc2cccc(O)c2)n1`, the IC50 was > 79 µM (inactive).

For the compound `Cc1c(C(=O)Oc2coc(CSc3ncccn3)cc2=O)cccc1[N+](=O)[O-]`, the IC50 is > 79 µM (inactive).

Turning to `CC(C)OC(=O)CN1C(=O)C(=O)c2ccccc21`, the IC50 was 4.99 µM and > 79 µM (inactive).

For the compound `Cc1ccccc1NCC(=O)c1ccc(Cl)cc1`, the IC50 is 1.72 µM.

For `C=CCOc1cccc(CSc2nc(C)cc(C)n2)c1`, the IC50 is > 79 µM (inactive).

As for `O=C(Oc1coc(CSc2ncccn2)cc1=O)c1ccc([N+](=O)[O-])cc1`, the IC50 was > 79 µM (inactive).

Take `O=C(CNc1ccc(Br)cc1)c1ccccc1`: the IC50 was 2.66 µM.

With `CC1(C)CC2(CC(c3ccccc3F)c3cc(Cl)c(O)cc3O2)NC(=S)N1` (centres undefined), the IC50 is > 79 µM (inactive).

As for `Cc1ccnc(SCc2cc(=O)c(OC(=O)c3ccco3)co2)n1`, the IC50 was > 79 µM (inactive).

As to `O=C(Oc1coc(CSc2ncccn2)cc1=O)c1cc([N+](=O)[O-])ccc1Cl`, the IC50 result is “inactive”.

On to `Cc1ccnc(SCc2cc(=O)c(OC(=O)c3ccc(Cl)cc3)co2)n1`, for which the IC50 was > 79 µM (inactive).

In the case of `Cc1ccnc(SCc2cc(=O)c(OC(=O)c3ccc(C)c([N+](=O)[O-])c3)co2)n1`, the IC50 was > 79 µM (inactive).

Consider `Cc1ccnc(SCc2cc(=O)c(OC(=O)c3cccc(Cl)c3)co2)n1`, for which the IC50 was > 79 µM (inactive).

For the compound `Cc1ccnc(SCc2cc(=O)c(OC(=O)c3ccc(C#N)cc3)co2)n1`, the IC50 is > 79 µM (inactive).

On to `O=C(Oc1coc(CSc2ncccn2)cc1=O)c1ccc(S(=O)(=O)N2CCOCC2)cc1`, for which the IC50 was > 79 µM (inactive).

For the compound `Cc1ccnc(SCc2cc(=O)c(OCc3ccccc3)co2)n1`, the IC50 is > 79 µM (inactive).

For `O=C(Oc1coc(CSc2ccccc2)cc1=O)c1ccc(Cl)c([N+](=O)[O-])c1`, the IC50 is > 79 µM (inactive).

Turning to `Cc1c(O)ccc2c1OC1(CC2c2ccccc2Cl)CC(C)(C)NC(=S)N1` (centres undefined), the IC50 was > 79 µM (inactive).

Consider `CC1(C)CC2(CC(c3ccccc3Cl)c3cc(Cl)c(OC(=O)C4CC4)cc3O2)NC(=S)N1` (centres undefined), for which the IC50 was > 79 µM (inactive).

In the case of `CCN(CC)S(=O)(=O)c1ccc(C(=O)Oc2coc(CSc3ncccn3)cc2=O)cc1`, the IC50 was > 79 µM (inactive).

For the compound `Cc1ccc(C(=O)Oc2coc(CSc3nccc(C)n3)cc2=O)cc1`, the IC50 was > 79 µM (inactive).

Consider `Cc1cc(C)nc(SCc2ccc(OC(=O)c3ccccc3)c(Cl)c2)n1`, for which the IC50 is > 79 µM (inactive).

As to `Cc1cccc(C(=O)Oc2coc(CSc3nccc(C)n3)cc2=O)c1`, the IC50 is > 79 µM (inactive).

For `O=c1cc(CSc2ccc(Cl)cc2)nc(-c2ccccn2)[nH]1`, the IC50 was 9.04 µM.

In the case of `CC1(C)CC2(CC(c3ccccc3Cl)c3ccc(O)cc3O2)NC(=O)N1` (centres undefined), the IC50 is > 79 µM (inactive).

On to `Cc1cc(C)nc(SCc2cc(=O)c(OC(=O)c3ccc(Cl)c([N+](=O)[O-])c3)co2)n1`, for which the IC50 was > 79 µM (inactive).

In the case of `O=C(Oc1coc(CSc2ncccn2)cc1=O)c1cc(Cl)ccc1[N+](=O)[O-]`, the IC50 result was “inactive”.

`O=C(Oc1coc(CSc2ncccn2)cc1=O)c1ccc(-c2ccccc2)cc1`: the IC50 is > 79 µM (inactive).

On to `CCC[N+](CC#Cc1ccccc1)(CCC)CC(=O)c1ccc(Cl)cc1`, for which the IC50 entry was “inactive”.

For `CSc1cccc(N=C2C(=O)Nc3ccccc32)c1`, the IC50 is 5.13 µM and 8.85 µM.

As to `Cc1ccc(N=C2C(=O)Nc3ccc(Br)cc32)cc1`, the 50% inhibitory concentration (IC50) is 3.92 µM.

On to `CC1(C)CC2(CC(c3ccc(F)cc3)c3ccc(O)cc3O2)NC(=S)N1` (centres undefined), for which the IC50 is > 79 µM (inactive).

Consider `Cc1cc(C)nc(NNS(=O)(=O)c2ccc(Cl)cc2)n1`, for which the IC50 is 12.4 µM.

As for `CNC(=O)c1nnsc1S(=O)(=O)c1ccc(Cl)cc1`, the IC50 is 9.98 µM.

As for `CCOC(=O)C1=NNC(C(=O)c2ccc(Cl)cc2)C1c1ccccc1` (centres undefined), the IC50 entry was “inactive”.

`CN(C)S(=O)(=O)c1ccc(C(=O)Oc2coc(CSc3ncccn3)cc2=O)cc1`: the IC50 was > 79 µM (inactive).

`O=C(CNC(=O)c1ccco1)NCC(=O)OCC(=O)c1ccc(Cl)c([N+](=O)[O-])c1`: the IC50 is 4.78 µM.
